Results: patent US20090012133A1, “Polymorphic Form of -Acetic Acid” (SMITHKLINE BEECHAM CORPORATION, priority 2006, published 2009)

What was measured:
[1] = stability of the crystal form at ambient temperatures; type: physicochemical
[2] = hygroscopicity of the crystalline form; type: physicochemical

Structure (SMILES): Cc1cc(SCc2sc(-c3ccc(C(F)(F)F)cc3)nc2C)ccc1OCC(=O)O [Form 7, {2-methyl-4-[4-methyl-2-(4-trifluoromethylphenyl)thiazol-5-ylmethylthio]phenoxy}-acetic acid]
- stability of crystal form [1]: stable
- hygroscopic nature of crystalline form [2]: non-hygroscopic
